# Target: T1, IGFR kinase (Homo sapiens, UniProt P08069)
# T1 construct: purchased Millipore
# Assay: Enzyme assay (c), IGFR kinase, Caliper LabChip
# Assay type: biochemical
# Details: 30 nM IGFR kinase, 6 uM ATP, 3 uM peptide mix; read-out: IGFR IC50
# Description: For Echo dosing the solvent was 100% DMSO. A master plate was prepared with 40 ul of 10 mM stock solution of the test compound in DMSO in quadrant 1 of a Labcyte 384 well plate. A 1 in 100 dilution was made from quadrant 1 into quadrant 2 by removing 0.4 ul and adding it to 39.6 ul of DMSO. Subsequent 1 in 100 dilutions were made into quadrant 3 from quadrant 2 and quadrant 4 from quadrant 3.
# Multiple 2.5 nl droplets were dispensed from each quadrant of the master plate to generate the dose range that was required in the test. The dose range most commonly used was as follows: 100 uM, 30 uM, 10 uM, 3 uM, 1 uM, 0.3 uM, 0.1 uM, 0.03 uM, 0.01 uM, 0.003 uM, 0.001 uM, 0.0001 uM. Each well was backfilled with dimethyl sulfoxide (DMSO) to a total volume of 120 nl, such that when the enzyme and substrate mix was added the final DMSO concentration was 1%.
# DMSO was added to max control wells as 120 nl, minimum control wells were treated with 120 nl of compound at a concentration that inhibited the enzyme activity 100%.
# Integration of the substrate and product peaks was carried out using Caliper LabChip software and IC50 curves were calculated using Origin™ software.
# T1 sequence (P08069 31-1367): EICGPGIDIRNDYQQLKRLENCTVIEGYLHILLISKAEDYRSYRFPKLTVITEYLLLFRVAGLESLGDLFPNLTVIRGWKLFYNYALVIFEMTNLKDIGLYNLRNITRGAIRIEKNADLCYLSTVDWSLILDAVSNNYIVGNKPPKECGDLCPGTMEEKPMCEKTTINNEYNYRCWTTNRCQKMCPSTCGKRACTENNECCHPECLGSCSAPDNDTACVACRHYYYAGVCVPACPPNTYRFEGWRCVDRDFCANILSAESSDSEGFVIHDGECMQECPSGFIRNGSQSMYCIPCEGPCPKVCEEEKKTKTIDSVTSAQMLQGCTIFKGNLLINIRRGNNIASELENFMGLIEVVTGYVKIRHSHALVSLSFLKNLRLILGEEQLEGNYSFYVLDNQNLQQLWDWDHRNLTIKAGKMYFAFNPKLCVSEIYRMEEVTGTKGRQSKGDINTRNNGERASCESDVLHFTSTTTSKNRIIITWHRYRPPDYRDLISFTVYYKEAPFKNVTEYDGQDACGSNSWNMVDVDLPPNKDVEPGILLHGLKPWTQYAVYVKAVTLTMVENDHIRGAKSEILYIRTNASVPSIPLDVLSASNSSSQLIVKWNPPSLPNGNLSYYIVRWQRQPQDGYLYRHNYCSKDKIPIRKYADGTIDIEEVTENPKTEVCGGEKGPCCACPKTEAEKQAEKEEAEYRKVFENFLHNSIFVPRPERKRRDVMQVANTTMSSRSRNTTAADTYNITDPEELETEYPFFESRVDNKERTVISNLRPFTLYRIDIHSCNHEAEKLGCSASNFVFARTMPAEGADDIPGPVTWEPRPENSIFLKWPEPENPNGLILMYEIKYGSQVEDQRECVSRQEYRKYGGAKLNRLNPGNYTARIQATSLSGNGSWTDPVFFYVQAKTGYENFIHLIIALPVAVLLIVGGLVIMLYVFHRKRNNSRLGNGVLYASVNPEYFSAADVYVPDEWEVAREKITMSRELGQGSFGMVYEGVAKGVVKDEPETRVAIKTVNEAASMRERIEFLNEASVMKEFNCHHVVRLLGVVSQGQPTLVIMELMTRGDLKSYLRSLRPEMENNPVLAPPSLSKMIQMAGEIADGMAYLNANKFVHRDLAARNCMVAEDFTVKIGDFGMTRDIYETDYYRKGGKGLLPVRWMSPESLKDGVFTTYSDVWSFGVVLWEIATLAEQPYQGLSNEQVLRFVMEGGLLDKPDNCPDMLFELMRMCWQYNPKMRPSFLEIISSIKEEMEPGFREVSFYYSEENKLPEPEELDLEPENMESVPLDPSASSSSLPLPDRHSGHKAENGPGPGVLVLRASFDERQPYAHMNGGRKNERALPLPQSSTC
row,Compound,IC50
1,"COc1cc(N2CCN(CC(=O)N3CCOCC3)CC2)ccc1Nc1ncc(Cl)c(-c2cnc3ccccn23)n1 [Example 3.3, 2-[4-[4-[(5-chloro-4-imidazo[1,2-a]pyridin-3-yl-pyrimidin-2-yl)amino]-3-methoxy-phenyl]piperazin-1-yl]-1-morpholino-ethanone]",11 nM
2,"CNCC(=O)N1CCC(c2ccc(Nc3ncc(F)c(-c4cnn5ccccc45)n3)c(OC)c2)CC1 [Example 238, 1-[4-[4-[(5-fluoro-4-pyrazolo[1,5-a]pyridin-3-yl-pyrimidin-2-yl)amino]-3-methoxy-phenyl]-1-piperidyl]-2-(methylamino)ethanone]",8 nM
3,"COc1cc(CN2CCN(C(C)=O)CC2)ccc1Nc1ncc(Cl)c(-c2cnc3ccccn23)n1 [Example 21.6, 1-[4-[[4-[(5-chloro-4-imidazo[1,2-a]pyridin-3-yl-pyrimidin-2-yl)amino]-3-methoxy-phenyl]methyl]piperazin-1-yl]ethanone]",26 nM
4,"COc1cc(OC2CN(C[C@@H](C)O)C2)ccc1Nc1ncc(Cl)c(-c2cnc3ccccn23)n1 [Example 62, (2R)-1-[3-[4-[(5-chloro-4-imidazo[1,2-a]pyridin-3-yl-pyrimidin-2-yl)amino]-3-methoxy-phenoxy]azetidin-1-yl]propan-2-ol]",19 nM
5,"COc1cc(N2CCN(C)CC2)ccc1Nc1ncc(Br)c(-c2cnc3ccccn23)n1 [Example 121, 5-bromo-4-imidazo[1,2-a]pyridin-3-yl-N-[2-methoxy-4-(4-methylpiperazin-1-yl)phenyl]pyrimidin-2-amine]",15 nM
6,"CCC(=O)N1CCN(c2ccc(Nc3ncc(Cl)c(-c4cnc5ccccn45)n3)c(OC)c2)CC1 [Example 42, 1-[4-[4-[(5-chloro-4-imidazo[1,2-a]pyridin-3-yl-pyrimidin-2-yl)amino]-3-methoxy-phenyl]piperazin-1-yl]propan-1-one]",18 nM
7,"COc1cc(N2CCNCC2)ccc1Nc1ncc(Cl)c(-c2cnc3ccc(C#N)cn23)n1 [Example 266, 3-[5-chloro-2-(2-methoxy-4-piperazin-1-yl-anilino)pyrimidin-4-yl]imidazo[1,2-a]pyridine-6-carbonitrile]",29 nM
8,"COc1cc(CC(CO)CO)ccc1Nc1ncc(Cl)c(-c2cnn3ccccc23)n1 [Example 190, 2-[[4-[(5-chloro-4-pyrazolo[1,5-a]pyridin-3-yl-pyrimidin-2-yl)amino]-3-methoxy-phenyl]methyl]propane-1,3-diol]",2 nM
9,"CNC(=O)CN(C)c1ccc(Nc2ncc(Cl)c(-c3cnc4c(F)cccn34)n2)c(OC)c1 [Example 226, 2-[4-[[5-chloro-4-(8-fluoroimidazo[1,2-a]pyridin-3-yl)pyrimidin-2-yl]amino]-3-methoxy-N-methyl-anilino]-N-methyl-acetamide]",33 nM
10,"COc1cc(C2CCN(C(=O)N(C)C)CC2)ccc1Nc1ncc(Cl)c(-c2cnc3ccccn23)n1 [Example 57, 4-[4-[(5-chloro-4-imidazo[1,2-a]pyridin-3-yl-pyrimidin-2-yl)amino]-3-methoxy-phenyl]-N,N-dimethyl-piperidine-1-carboxamide]",6 nM
11,"COc1cc(N2CCN(CCO)[C@@H](C)C2)ccc1Nc1ncc(C)c(-c2cnc3ccccn23)n1 [Example 271, 2-[(2S)-4-[4-[(4-imidazo[1,2-a]pyridin-3-yl-5-methyl-pyrimidin-2-yl)amino]-3-methoxy-phenyl]-2-methyl-piperazin-1-yl]ethanol]",190 nM
12,"COc1cc(OC[C@@H]2CCCN2)ccc1Nc1ncc(Cl)c(-c2cnc3ccccn23)n1 [Example 6.2, 5-chloro-4-imidazo[1,2-a]pyridin-3-yl-N-[2-methoxy-4-[[(2S)-pyrrolidin-2-yl]methoxy]phenyl]pyrimidin-2-amine]",14 nM
13,"COc1cc(N2CCN(C(=O)[C@H]3CCCCN3)CC2)ccc1Nc1ncc(Cl)c(-c2cnc3ccccn23)n1 [Example 24.1, [4-[4-[(5-chloro-4-imidazo[1,2-a]pyridin-3-yl-pyrimidin-2-yl)amino]-3-methoxy-phenyl]piperazin-1-yl]-[(2R)-2-piperidyl]methanone]",8 nM
14,"CNCC(=O)N1CCC(c2ccc(Nc3ncc(C)c(-c4cnn5ccccc45)n3)c(OC)c2)CC1 [Example 237, 1-[4-[3-methoxy-4-[(5-methyl-4-pyrazolo[1,5-a]pyridin-3-yl-pyrimidin-2-yl)amino]phenyl]-1-piperidyl]-2-(methylamino)ethanone]",8 nM
15,"CNCc1ccn2c(-c3nc(Nc4ccc(N5CCN(C(C)=O)CC5)cc4OC)ncc3Cl)cnc2c1 [Example 186, 1-[4-[4-[[5-chloro-4-[7-(methylaminomethyl)imidazo[1,2-a]pyridin-3-yl]pyrimidin-2-yl]amino]-3-methoxy-phenyl]piperazin-1-yl]ethanone]",36 nM

# The remaining compounds from weak to strong by IC50, led by results:
row,IC50,Compound
1,179 nM,"COc1cc(N2CCCOCC2)ccc1Nc1ncc(F)c(-c2cnc3ccccn23)n1 [Example 84, 5-fluoro-4-imidazo[1,2-a]pyridin-3-yl-N-[2-methoxy-4-(1,4-oxazepan-4-yl)phenyl]pyrimidin-2-amine]"
2,26 nM,"COc1cc(CN[C@H](C)CO)ccc1Nc1ncc(Cl)c(-c2cnc3ccccn23)n1 [Example 21.15, (2R)-2-[[4-[(5-chloro-4-imidazo[1,2-a]pyridin-3-yl-pyrimidin-2-yl)amino]-3-methoxy-phenyl]methylamino]propan-1-ol]"
3,22 nM,"COc1cc(CN2CC(O)C2)ccc1Nc1ncc(Cl)c(-c2cnc3ccccn23)n1 [Example 21.16, 1-[[4-[(5-chloro-4-imidazo[1,2-a]pyridin-3-yl-pyrimidin-2-yl)amino]-3-methoxy-phenyl]methyl]azetidin-3-ol]"
4,19 nM,"COc1cc(OC2CN(CCO)C2)ccc1Nc1ncc(Cl)c(-c2cnc3ccccn23)n1 [Example 64, 2-[3-[4-[(5-chloro-4-imidazo[1,2-a]pyridin-3-yl-pyrimidin-2-yl)amino]-3-methoxy-phenoxy]azetidin-1-yl]ethanol]"
5,15 nM,"COc1cc(N2CCN(C(C)=O)CC2)ccc1Nc1ncc(C)c(-c2cnn3ccccc23)n1 [Example 158, 1-[4-[3-methoxy-4-[(5-methyl-4-pyrazolo[1,5-a]pyridin-3-yl-pyrimidin-2-yl)amino]phenyl]piperazin-1-yl]ethanone]"
6,13 nM,"COc1cc(N2CCN(C(=O)CNC(C)=O)CC2)ccc1Nc1ncc(Cl)c(-c2cnc3ccccn23)n1 [Example 25.2, N-[2-[4-[4-[(5-chloro-4-imidazo[1,2-a]pyridin-3-yl-pyrimidin-2-yl)amino]-3-methoxy-phenyl]piperazin-1-yl]-2-oxo-ethyl]acetamide]"
7,12 nM,"COc1cc(C2CCNCC2)ccc1Nc1ncc(F)c(-c2cnc3ccccn23)n1 [Example 86, 5-fluoro-4-imidazo[1,2-a]pyridin-3-yl-N-[2-methoxy-4-(4-piperidyl)phenyl]pyrimidin-2-amine]"
8,11 nM,"COc1cc(N2CCN(C(C)(C)CO)CC2)ccc1Nc1ncc(C)c(-c2cnc3ccc(F)cn23)n1 [Example 260, 2-[4-[4-[[4-(6-fluoroimidazo[1,2-a]pyridin-3-yl)-5-methyl-pyrimidin-2-yl]amino]-3-methoxy-phenyl]piperazin-1-yl]-2-methyl-propan-1-ol]"
9,8 nM,"COc1cc(N2CCN(C[C@@H](C)O)CC2)ccc1Nc1ncc(Cl)c(-c2cnc3ccccn23)n1 [Example 51, (2R)-1-[4-[4-[(5-chloro-4-imidazo[1,2-a]pyridin-3-yl-pyrimidin-2-yl)amino]-3-methoxy-phenyl]piperazin-1-yl]propan-2-ol]"
10,8 nM,"COc1cc(C2CCN(C(=O)CO)CC2)ccc1Nc1ncc(Cl)c(-c2cnc3c(F)cccn23)n1 [Example 179, 1-[4-[4-[[5-chloro-4-(8-fluoroimidazo[1,2-a]pyridin-3-yl)pyrimidin-2-yl]amino]-3-methoxy-phenyl]-1-piperidyl]-2-hydroxy-ethanone]"
11,7 nM,"COc1cc(N2CCN(CCO)CC2)ccc1Nc1ncc(Cl)c(-c2cnc3ccc(F)cn23)n1 [Example 263, 2-[4-[4-[[5-chloro-4-(6-fluoroimidazo[1,2-a]pyridin-3-yl)pyrimidin-2-yl]amino]-3-methoxy-phenyl]piperazin-1-yl]ethanol]"
12,6 nM,"COCCN1CCN(c2ccc(Nc3ncc(Cl)c(-c4cnc5ccccn45)n3)c(OC)c2)CC1 [Example 3.46, 5-chloro-4-imidazo[1,2-a]pyridin-3-yl-N-[2-methoxy-4-[4-(2-methoxyethyl)piperazin-1-yl]phenyl]pyrimidin-2-amine]"
13,5 nM,"COc1cc(N2CCN(C(=O)[C@@H](N)CCO)CC2)ccc1Nc1ncc(Cl)c(-c2cnc3ccccn23)n1 [Example 24.13, (2S)-2-amino-1-[4-[4-[(5-chloro-4-imidazo[1,2-a]pynidin-3-yl-pyrimidin-2-yl)amino]-3-methoxy-phenyl]piperazin-1-yl]-4-hydroxy-butan-1-one]"
14,5 nM,"COc1cc(C2CCN(C(=O)CO)CC2)ccc1Nc1ncc(Cl)c(-c2cnc3ccc(F)cn23)n1 [Example 244, 1-[4-[4-[[5-chloro-4-(6-fluoroimidazo[1,2-a]pyridin-3-yl)pyrimidin-2-yl]amino]-3-methoxy-phenyl]-1-piperidyl]-2-hydroxy-ethanone]"
15,4 nM,"COc1cc(C2CCN(C(=O)CO)CC2)ccc1Nc1ncc(Cl)c(-c2cnc3ccccn23)n1 [Example 28.5, 1-[4-[4-[(5-chloro-4-imidazo[1,2-a]pyridin-3-yl-pyrimidin-2-yl)amino]-3-methoxy-phenyl]-1-piperidyl]-2-hydroxy-ethanone]"

# From patent US20100105655A1, “NOVEL COMPOUNDS 515” (ASTRAZENECA AB, priority 2008, published 2010)
